According to patent publication US5274002A, “Trisubstituted phenyl analogs having activity for congestive heart failure” (Warner-Lambert Company, priority 1990, dated 1993):

Key:
[1] = test system: isolated Langendorff rat heart; experiment: isolated Langendorff rat heart (CVIH), coronary flow; details: In Vitro Langendorf Isolated Rat Heart, constant perfusion pressure 70 mm Hg, 37° C.; for EC25: read-out: EC 25 (Coronary Flow); for EC50: read-out: EC 50 (Coronary Flow)
Experimental: TEST FOR INOTROPIC, CHRONOTROPIC, AND VASCULAR ACTIVITIES IN THE ISOLATED LANGENDORFF RAT HEART (CVIH)
Male rats (400-600 gms) are pretreated with 2000 units Na heparin (Parke-Davis) and anesthetized with Na pentobarbital (50 mg/kg, Butler Co.) administered intraperitoneally. Once anesthetized, the rat heart is rapidly excised, the ascending aorta fitted to the aortic perfusion cannula, and secured with a ligature. The coronary arteries were perfused initially at a rate of about 15 ml/min for two to three minutes, after which they are perfused at constant pressure of 70 mm Hg and temperature of 37° C. The electrocardiogram (ECG) is recorded using two platinum electrodes positioned at the base and apex of the left ventricle. A second heart is excised, cannulated, and perfused by the same method outlined above. Both hearts are tested in parallel. The standard physiological salt solution (PSS) is a modified Krebs-Hanseleit bicarbonate buffer of the following composition in mM concentration: NaCl, 127; NaHCO3, 25; dextrose, 5.5; Na Pyruvate, 2.0; KCl, 4.7;MgSO4, 1.1; KH2 PO4, 1.2; CaCl2 ·2H2O, 2.5; CaNa2 EDTA, 0.05.
A 30-minute stabilization period is observed before starting the test protocol.
Microprocessor Controlled Coronary Perfusion and Drug Delivery System
The microprocessor control system is a servo mechanism which permits coronary perfusion pressure (CPP) and drug concentration to be maintained constant independent of changes in coronary flow. The level at which CPP and drug concentration are maintained can be changed by commands communicated through the microprocessor keyboard. Dose-response curves are carried out by perfusing a solution at a specified drug concentration (DC) at rates proportional to total coronary flow (CFT). Drug concentrations are increased by proportionate increases in the rate of DC infusion over CFT via the microprocessor keyboard. The proportional flow rates for DC:CFT is about 0.0002:1 at the low end and 0.02:1 at the high end of the dose-response curve. Dose-response curves encompassing at least two log doses are carried out by preparing two DCs with a concentration difference of 1:100. Following the first dose range of two log doses, the DC is switched, proportional pumping rate adjusted, and the dose-response curve continued for another two log doses. The standard dose-response curve is carried out in one-half log dose increments starting at a subthreshold dose and ending at a dose which produces near maximal response in activity. Standard reference compounds are tested over the range of 10^-9 to 10^-6 M.
Measurements are for coronary flow (CF). Units are: CF, milliliters/minute (ml/min). CF is calculated by recording analog outputs from pumps 1 and 2. Outputs from pump #1=CFT and the output from pump #2=CF for heart B (CFB) CF for heart A (CFA) is calculated (CFT -CFB =CFA).
Using the above coronary blood flow evaluation technique, the effects of the compounds of each indicated example is shown as the EC (effective concentration) 25/(effective concentration) EC 50.

anesthetized dog = experiment: in vivo myocardial inotropic activity in the anesthetized dog; details: 1.0 mg/kg, change from control data prior to dosing
Experimental: TEST FOR IN VIVO MYOCARDIAL INOTROPIC ACTIVITY IN THE ANESTHETIZED DOG
Adult mongrel dogs of either sex are anesthetized with pentobarbital, 35 mg/kg, IV, and are maintained under anesthesia with a continuous infusion of pentobarbital, 3.5 mg/kg/hr. The trachea is intubated, but the animals are permitted to breathe spontaneously. A cannula is inserted into the femoral vein for administering test agents. A Millar catheter tip pressure transducer or a fluid filled catheter is inserted into the ascending aorta via the femoral artery for measuring pressure. A Millar catheter tip pressure transducer is passed into the left ventricle via the left carotid artery for measuring left ventricular blood pressure. Needle electrodes are placed subcutaneously for recording a lead II electrocardiogram. Before administering test agents, control data is acquired over a period of at least thirty minutes.
The test agent is dissolved in dimethylacetamide. Each dose is administered in a volume of 0.5 ml over a period of one minute. Appropriate vehicle controls are also administered.
When tested by this protocol, representative compounds of formula I, when administered at a dose of 1 mg/kg, produced an increase in contractility, a minimal increase in blood pressure, and an increase in heart rate as shown in the following Table B.

SMILES | EC25 [1] [µM] | EC50 [1] [µM] | Blood Pressure, percent increase (+) or decrease (-) from control data (anesthetized dog) | Contractility, percent increase (+) or decrease (-) from control data (anesthetized dog) | Heart Rate, percent increase (+) or decrease (-) from control data (anesthetized dog)
COC(=O)/C=C/c1ccc(OC)c(OC2CCCC2)c1 [Example 3, Methyl 3-(3-cyclopentoxy-4-methoxyphenyl)-E-propenoate] | 2 | > 500 | +16% | +77% | +20%
COC(=O)CCc1ccc(OC)c(OC2CCCC2)c1 [Example 9, Methyl 3-(3-cyclopentoxy-4-methoxyphenyl)-n-propionate] | 15 | 22 | +5% | +36% | +41%
COc1ccc(CCC(=O)O)cc1OC1CCCC1 [Example 13, 3-(3-Cyclopentoxy-4-methoxyphenyl)-n-propanoic acid] | 4 | 15 | +9% | +47% | +23%
COc1ccc(CCC(N)=O)cc1OC1CCCC1 [Example 16, 3-(3-Cyclopentoxy-4-methoxyphenyl)-n-propionyl amide] | 3 | 10 | +5% | +127% | +25%
COc1ccc(CCCO)cc1OC1CCCC1 [Example 19, 3-(3-Cyclopentoxy-4-methoxyphenyl)-n-1-propanol] | 2 | 7 | +9% | +91% | +25%
COc1ccc(/C=C/C=O)cc1OC1CCCC1 [Example 21, 3-(3-Cyclopentoxy-4-methoxyphenyl)-E-propene-1-aldehyde] | 1.1 | 2 | -1% | +62% | +35%
